# According to patent US9834514B2, “Antibiotic sensitivity-restoring and photosensitive agents” (New Mexico Tech Research Foundation, priority 2015, dated 2017):
# Key:
# [1] = tested on: MRSA (ATCC No. BAA-44; ATCC No. BAA-1717); experiment: Light-activated killing (photodynamic therapy), colony counts; type: cell-based, S. aureus; conditions: for Light Toxicity: white light 2 minutes; for log reduction in the concentration of CFUs: MRSA, FIG. 7; for appearance of MRSA cells in SEM image: FIG. 4
# Procedure: Bacterial media was inoculated with bacteria and incubated overnight. The bacterial cultures were diluted to 5×10^8 CFU/mL using a McFarland latex turbidity standard (0.5). Compound 1 was diluted with sterile DMSO, which was added to the cell suspension in a glass culture tube. The cells were then incubated for 30 minutes at 37° C. on a rotary shaking incubator at 150 rpm. 500 μL of the treated cell suspension was added to a well on a sterile ceramic drop plate. Non-coherent white light from a Lumacare™ LC-122 unit was used to irradiate the samples. The end of the light probe was placed 3 cm above the sample well, perpendicular to the surface of the sample, and light was applied for 2 minutes (15 seconds light, 15 seconds dark). 200 μL of the irradiated sample was transferred to a 96-well plastic microtiter plate, and five ten-fold dilutions were made in the media. 10 μL of each dilution was dripped onto an agar media plate and streaked down the plate by tilting the plate down. The agar plates were incubated at 37° C. overnight, and colony counts were performed to calculate the CFU/mL.
# Dose-dependent effects of treating bacteria with compound 1 and irradiation with white light were assessed by treating 10^8 CFU/mL of cells with compound 1, followed by irradiation with white light for 2 minutes. Compound 1 was added at a specific concentration to 1 mL of a 10^8 CFU/mL suspension of the respective bacterial cells, and the cells were incubated at 37° C. for approximately 45 minutes on a rotary shaker at 150 rpm. 0.5 mL of the cell suspension was removed and placed into the wells of a sterile ceramic drop plate, and then the cells were irradiated with white light from a Lumacare™ LC 122A light source for 2 minutes at a distance of approximately 3 cm. The time and distance of the light application delivered about 85 J/cm^2 of 400-700 nm light to the sample. After being irradiated, ten-fold dilutions were made of each cell sample. The dilutions were drip-streaked onto a tryptic soy agar (TSA) plate and incubated at 37° C. for 18-24 hours. Enumeration of bacteria was determined from the dilution, which produced a drip-streak containing approximately 30-300 colonies. After counting the colonies, the CFU/mL was calculated by applying the respective dilution factor and a factor of 100 to account for the 10 μL of sample taken. Appropriate controls were prepared, including cells with no treatment, cells with only compound 1 added, and cells only treated with light.
# [2] = tested on: Klebsiella pneumoniae (CRE, ATCC BAA-1705); experiment: Cell killing of CRE with compounds in presence or absence of PMB (CFU/mL); type: cell-based; conditions: for PMB + Comp: PMB @ 0.2 μg/mL + Comp @ 20 µM; for Comp @ 20 µM: compound alone
# Procedure: Klebsiella pneumoniae (CRE, ATCC BAA-1705) was grown in TSB overnight at 37° C. and diluted to about 5×10^5 CFU/mL using a McFarland Latex Turbidity standard (0.5). One mL of the cell suspension was transferred to a glass culture test tube. PMB was added to the cell suspension resulting in a final concentration of 200 μg/mL of PMB. The cell suspension was incubated at 37° C. on a rotary shaking incubator at 150 rpm for 4 hours. Compounds 1, 7, 8, 9, 10, and 11 were added to the cell suspension, resulting in a concentration of 20 μM for each of the compounds. The cell suspensions containing the compounds were incubated at 37° C. on a rotary shaking incubator at 150 rpm for 4 hours. Each sample was diluted tenfold to a 10^−5 dilution. Ten 10 microliters of each dilution from each sample was dripped onto a TSA plate and allowed to streak down the plate. The agar plates were incubated at 37° C. for 18-24 hours. Colony counts were performed and CFU/mL values were calculated.
# The MICs of PMB and compounds 7-11 were determined against Klebsiella pneumoniae (CRE, ATCC BAA-1705). […] After the incubation with PMB, each of the compounds was added at a concentration of 20 μM, and the samples were incubated for an additional 18 hours. A sample was taken and diluted ten-fold in media. Ten microliters of each dilution was then drip-streaked onto an agar plate and incubated overnight at 37° C. Colony counts were then performed and the concentrations of cells (CFU/mL) were calculated.
# [3] = tested on: Klebsiella pneumoniae (CRE, ATCC BAA-1705); experiment: MIC against CRE; type: cell-based; conditions: Klebsiella pneumoniae, ATCCBAA1705
# Procedure: TABLE 27 details the individual MIC values of compounds 1, 7, 8, 9, 10, 11, PMB, PME, and light against CRE.
# The MICs of PME and compounds 8-11 were determined against Klebsiella pneumoniae (CRE, ATCC BAA-1705). […] After the incubation with PME, the compounds were added at a concentration of 20 μM, and the samples were further incubated. At specific time points, the samples were taken and diluted ten-fold in media. Ten microliters of each dilution was then drip-streaked onto an agar plate and incubated overnight at 37° C. Colony counts were then performed and the CFU/mL were calculated.
# [4] = tested on: A. baumannii (ATCC 15151); experiment: MIC against A. baumannii; type: cell-based; conditions: Acinetobacter baumannii, ATCC15151
# Procedure: TABLE 28 details the individual MIC values of compounds 1, 7, 8, 9, 10, 11, PMB, PME, and light against A. baumannii.
# (§1) The MICs of PME and compounds 8-11 were determined against A. baumannii (ATCC 15151). […] After incubating the cells with PME, a compound (5 μM) was added, and the samples were further incubated at 37° C. At specific time points, samples were taken and diluted ten-fold in media. Ten microliters of each dilution was then drip-streaked onto an agar plate and incubated overnight at 37° C. Colony counts were then performed, and the CFU/mL were calculated.
# P. aeruginosa = experiment: Resensitization to antibiotics (log reduction, TABLE 29); type: cell-based; conditions: compound 20 μM
# [5] = tested on: A. baumannii (ATCC 15151); experiment: Time course of colony counts with compounds and PME or PMB; type: cell-based; conditions: for A. baumannii colony populations on treatment with compound and PME: 0.2 μg/mL of PME, compound 5 μM, FIGS. 50, 52
# Procedure: as §1
# S. aureus (ATCC 29213) = experiment: microbe, parasite or virus in culture; type: cell-based; conditions: for MIC: Staphylococcus aureus, ATCC29213, read-out: Final MIC Apr. 16, 2015
# Procedure: Each mixture was incubated at 37° C. on a rotary shaking incubator for about 16 hours. MTT was then added to assess the viability of the cells (at 10% well volume). […] The cells were then streaked onto a TSA plate and incubated overnight at 37° C. These steps were repeated to reach a total of 30 exposures.
compound,measurement,setting,value
Clc1ccc(/C=C/c2[nH]c3ccccc3c2/C=C/c2ccc(Cl)cc2)cc1 [Compound 1],Dark Toxicity,"[1]; MRSA ATCC BAA-44, 0.1 μM, no light",2.85 × 10^8 ± 8.05 × 10^7 CFU/mL
same,Light Toxicity,"[1]; MRSA ATCC BAA-44, 0.1 μM",2.00 × 10^3 ± 4.00 × 10^2 CFU/mL
same,Dark Toxicity,"[1]; MRSA ATCC BAA-44, 0.5 μM, no light",2.93 × 10^8 ± 2.14 × 10^7 CFU/mL
same,Light Toxicity,"[1]; MRSA ATCC BAA-44, 0.5 μM",3.33 × 10^1 ± 5.77 × 10^1 CFU/mL
same,Dark Toxicity,"[1]; MRSA ATCC BAA-44, 1.0 μM, no light",1.05 × 10^8 ± 9.07 × 10^6 CFU/mL
same,Light Toxicity,"[1]; MRSA ATCC BAA-44, 1.0 μM",None detected (<100 CFU/mL)
same,Dark Toxicity,"[1]; MRSA ATCC BAA-44, 5.1 μM, no light",4.34 × 10^5 ± 5.04 × 10^5 CFU/mL
same,Light Toxicity,"[1]; MRSA ATCC BAA-44, 5.1 μM",None detected (<100 CFU/mL)
same,Dark Toxicity,"[1]; MRSA ATCC BAA-1717, 0.1 μM, no light",5.10 × 10^7 ± 5.29 × 10^6 CFU/mL
same,Light Toxicity,"[1]; MRSA ATCC BAA-1717, 0.1 μM",4.43 × 10^3 ± 1.33 × 10^3 CFU/mL
same,Dark Toxicity,"[1]; MRSA ATCC BAA-1717, 0.5 μM, no light",4.03 × 10^6 ± 1.5 × 10^6 CFU/mL
same,Light Toxicity,"[1]; MRSA ATCC BAA-1717, 0.5 μM",4.0 × 10^2 ± 3.61 × 10^2 CFU/mL
same,Dark Toxicity,"[1]; MRSA ATCC BAA-1717, 1.0 μM, no light",1.06 × 10^6 ± 8.39 × 10^4 CFU/mL
same,Light Toxicity,"[1]; MRSA ATCC BAA-1717, 1.0 μM",None detected (<100 CFU/mL)
same,Dark Toxicity,"[1]; MRSA ATCC BAA-1717, 5.1 μM, no light",7.53 × 10^5 ± 1.12 × 10^5 CFU/mL
same,Light Toxicity,"[1]; MRSA ATCC BAA-1717, 5.1 μM",None detected (<100 CFU/mL)
same,log reduction in the concentration of CFUs,[1]; 1 μM,1 log
same,log reduction in the concentration of CFUs,[1]; 5 μM,3 log
same,PDT,[1]; TABLE 6,<1-log reduction
same,viable MRSA cells after photodynamic therapy,"[1]; from 100,000,000 viable MRSA cells, 2 minutes of white light irradiation",0
same,PMB + Comp,[2],8.2 × 10^3 CFU/mL
same,Comp @ 20 µM,[2],6.4 × 10^8 CFU/mL
same,MIC,[3],> 100 µM
same,MIC,[4],> 100 µM
same,Log Reduction,P. aeruginosa; PME (0.1 μg/mL),2
same,Log Reduction,P. aeruginosa; PME (0.1 μg/mL) + Light (2 min),8
Brc1ccc(/N=N/c2c[nH]c3ccccc23)cc1 [Compound 8],PMB + Comp,[2],None Detected
same,Comp @ 20 µM,[2],6.6 × 10^8 CFU/mL
same,MIC,[3],> 100 µM
same,MIC,[4],> 100 µM
same,A. baumannii colony populations on treatment with compound and PME or PMB,[5]; FIG. 51,reduced to sterility
same,Log Reduction,P. aeruginosa; PME (0.1 μg/mL),4
same,Resistance Evolved,S. aureus (ATCC 29213),No
Clc1ccc(/N=N/c2c[nH]c3ccccc23)cc1 [Compound 9],appearance of MRSA cells in SEM image,"[1]; compound 9 alone, no light",undamaged
same,appearance of MRSA cells in SEM image,[1]; compound 9 at 25 uM and light (LumaCare),appear to have burst from the inside
same,PMB + Comp,[2],None Detected
same,Comp @ 20 µM,[2],6.4 × 10^8 CFU/mL
same,MIC,[3],> 100 µM
same,MIC,[4],> 100 µM
same,A. baumannii colony populations on treatment with compound and PME,[5],reduced to sterility
same,Log Reduction,P. aeruginosa; PME (0.1 μg/mL),2
same,Resistance Evolved,S. aureus (ATCC 29213),No
same,MIC,S. aureus (ATCC 29213),8 µM
Clc1ccc(Oc2c(-c3ccc(Cl)cc3)[nH]c3ccccc23)cc1 [Compound 10],PMB + Comp,[2],None Detected
same,Comp @ 20 µM,[2],7.9 × 10^8 CFU/mL
same,MIC,[3],> 100 µM
same,MIC,[4],> 100 µM
same,A. baumannii colony populations on treatment with compound and PME,[5],reduced to sterility
same,Log Reduction,P. aeruginosa; PME (0.1 μg/mL),2
same,Resistance Evolved,S. aureus (ATCC 29213),No
same,MIC,S. aureus (ATCC 29213),16 to 32 µM
Clc1ccc(Oc2c(-c3ccc(Cl)cc3)[nH]c3ccc(Cl)cc23)cc1 [Compound 11],PMB + Comp,[2],None Detected
same,Comp @ 20 µM,[2],7.8 × 10^8 CFU/mL
same,MIC,[3],> 100 µM
same,MIC,[4],> 100 µM
same,A. baumannii colony populations on treatment with compound and PME,[5],reduced to sterility
same,Log Reduction,P. aeruginosa; PME (0.1 μg/mL),2
same,Resistance Evolved,S. aureus (ATCC 29213),Yes
same,MIC,S. aureus (ATCC 29213),> 256 µM
